Results published in publication PMC11079024, “Identification of a family of species-selective complex I inhibitors as potential anthelmintics” (Nature Communications, 2024).
Values joined by “and” are separate entries in the source; they are usually repeats but may differ in a detail not shown here. Equal values may be shown once. Read-outs that look alike come from different tables or passages of the source.

Target: C. elegans (N2) complex I (NADH:ubiquinone oxidoreductase) (Caenorhabditis elegans, UniProt P24887+Q93873+Q94360)
Experiment: biochemical
Format: biochemical
Outline: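 Compounds were tested against freeze-thawed isolated mitochondria (0.2 mg/mL protein). NADH:decylubiquinone activity was monitored via DCIP absorbance at 600 nm, and the initial linear slope was normalised to solvent controls.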

[1] = wild-type C. elegans, individual Rep1-Rep4, read-out: percent in vitro complex I activity relative to solvent control, single replicates
[2] = wild-type C. elegans, mean of Rep1-4, read-out: percent in vitro complex I activity relative to solvent control, Mean
[3] = N2 wild-type mitochondria, Fig. 4d data set, mean of replicates, read-out: percent (%) in vitro complex I activity relative to solvent control
[4] = wild-type C. elegans mitochondria, mean of replicates, read-out: percent (%) in vitro complex I activity relative to solvent control
[5] = C. elegans mitochondria, Mean of replicates, read-out: in vitro complex I activity relative to solvent control
[6] = C. elegans mitochondria, single replicate, read-out: in vitro complex I activity relative to solvent control
[7] = C. elegans mitochondria, Mean, read-out: in vitro complex I activity relative to solvent control

C. elegans (N2) complex I (NADH:ubiquinone oxidoreductase), sequence (Q94360 17-199): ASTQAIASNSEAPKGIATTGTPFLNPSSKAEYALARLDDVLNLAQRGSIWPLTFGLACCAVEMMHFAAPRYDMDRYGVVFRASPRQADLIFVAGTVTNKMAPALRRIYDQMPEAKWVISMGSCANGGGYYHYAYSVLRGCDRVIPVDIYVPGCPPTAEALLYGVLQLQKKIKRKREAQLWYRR
C. elegans (N2) complex I (NADH:ubiquinone oxidoreductase), sequence (P24887 whole entry): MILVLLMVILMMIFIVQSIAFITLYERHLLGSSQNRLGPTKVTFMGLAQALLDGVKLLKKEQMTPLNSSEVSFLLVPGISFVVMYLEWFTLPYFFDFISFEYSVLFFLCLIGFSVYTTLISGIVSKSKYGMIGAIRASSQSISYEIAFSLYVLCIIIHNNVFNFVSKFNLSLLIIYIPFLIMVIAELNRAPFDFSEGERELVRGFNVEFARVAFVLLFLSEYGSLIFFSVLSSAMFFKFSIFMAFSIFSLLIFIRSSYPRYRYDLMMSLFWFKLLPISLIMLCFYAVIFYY
C. elegans (N2) complex I (NADH:ubiquinone oxidoreductase), sequence (Q93873 31-482): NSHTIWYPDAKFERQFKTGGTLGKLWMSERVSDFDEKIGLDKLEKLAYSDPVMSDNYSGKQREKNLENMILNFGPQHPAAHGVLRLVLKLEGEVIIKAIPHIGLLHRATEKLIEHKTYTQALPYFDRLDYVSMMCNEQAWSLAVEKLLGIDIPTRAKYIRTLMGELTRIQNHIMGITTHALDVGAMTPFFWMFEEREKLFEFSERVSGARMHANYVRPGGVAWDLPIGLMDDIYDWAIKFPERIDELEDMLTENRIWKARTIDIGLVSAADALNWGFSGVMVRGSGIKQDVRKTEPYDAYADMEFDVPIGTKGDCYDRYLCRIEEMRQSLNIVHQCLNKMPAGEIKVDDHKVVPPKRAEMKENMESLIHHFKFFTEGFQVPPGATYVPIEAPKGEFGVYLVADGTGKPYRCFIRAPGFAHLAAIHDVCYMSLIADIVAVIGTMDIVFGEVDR

Structure (SMILES): CC(C)Cc1ccc(C(C)c2nc3ccccc3n2C)cc1 (centres unmarked) [NPD8790]
- remaining activity at 0.0001 µM [1]: 100%
- remaining activity at 0.0001 µM [2]: 96.6%
- remaining activity at 0.0005 µM [1]: 105%
- remaining activity at 0.0005 µM [2]: 96.5%
- remaining activity at 0.001 µM [1]: 99%
- remaining activity at 0.001 µM [2]: 92.6%
- remaining activity at 0.0025 µM [1]: 107%
- remaining activity at 0.0025 µM [2]: 98.8%
- remaining activity at 0.005 µM [1]: 102%
- remaining activity at 0.005 µM [2]: 95.9%
- remaining activity at 0.013 µM [2]: 106%
- remaining activity at 0.025 µM [1]: 102%
- remaining activity at 0.025 µM [2]: 98.2%
- remaining activity at 0.063 µM [2]: 95.6%
- remaining activity at 0.125 µM [3]: 96.6%
- remaining activity at 0.125 µM (N2 wild-type mitochondria, Fig. 4d data set, single replicate, read-out: percent (%) in vitro complex I activity relative to solvent control): 94.3%
- remaining activity at 0.125 µM [4]: 102%
- remaining activity at 0.125 µM (wild-type C. elegans mitochondria, single replicate, read-out: percent (%) in vitro complex I activity relative to solvent control): 95.7%
- remaining activity at 0.125 µM [1]: 95.7%
- remaining activity at 0.125 µM [2]: 92%
- remaining activity at 0.313 µM [3]: 90.9%
- remaining activity at 0.313 µM [4]: 93%
- remaining activity at 0.313 µM [1]: 86.3%
- remaining activity at 0.313 µM [2]: 81.9%
- remaining activity at 0.625 µM [3]: 93.2%
- remaining activity at 0.625 µM [4]: 87%
- remaining activity at 0.625 µM [2]: 83.7%
- remaining activity at 1.5 µM [3]: 78.9%
- remaining activity at 1.5 µM [4]: 72.5%
- remaining activity at 1.5 µM [2]: 70.3%
- remaining activity at 3 µM [3]: 61.6%
- remaining activity at 3 µM [4]: 52.5%
- remaining activity at 3 µM [2]: 49.5%
- remaining activity at 15 µM [3]: 8.9%
- remaining activity at 15 µM [4]: 7.83%
- remaining activity at 15 µM [2]: 8.01%
- remaining activity at 37.5 µM [3]: 5.01%
- remaining activity at 37.5 µM [4]: 3.88%
- remaining activity at 37.5 µM [2]: 3.5%
- remaining activity at 75 µM (75 µM, wild-type C. elegans, mean of Rep1-4, read-out: percent in vitro complex I activity relative to solvent control, Mean): 13.3%
- activity at 100 µM (100 µM compound, relative to solvent control, mean (SEM), read-out: % Activity Complex I): 5.34%
- Percent in vitro activity, Complex I (single replicate Rep1-Rep4) (100 μM of NPD compound, C. elegans mitochondria, individual biological replicates, 100 µM): 0.000% and 4.423% and 13.672% and 3.252%
- activity at 100 µM (100 μM of NPD compound, C. elegans mitochondria, mean of four biological replicates, read-out: Percent in vitro activity, Complex I (Mean)): 5.34%
- remaining activity at 0.06 µM (C. elegans mitochondria, 0.06 µM, Mean of replicates, read-out: in vitro complex I activity relative to solvent control): 109%
- remaining activity at 0.13 µM [5]: 102%
- remaining activity at 0.13 µM [6]: 112%
- remaining activity at 0.313 µM [5]: 93%
- remaining activity at 0.625 µM [5]: 87%
- remaining activity at 1.5 µM [5]: 72.5%
- remaining activity at 3 µM [5]: 52.5%
- remaining activity at 15 µM [5]: 7.83%
- remaining activity at 37.5 µM [5]: 3.88%
- remaining activity at 0.0001 µM [7]: 104%
- remaining activity at 0.0005 µM [7]: 106%
- remaining activity at 0.0005 µM [6]: 105%
- remaining activity at 0.001 µM [7]: 104%
- remaining activity at 0.0025 µM [7]: 109%
- remaining activity at 0.0025 µM [6]: 107%
- remaining activity at 0.005 µM [7]: 107%
- remaining activity at 0.013 µM [7]: 115%
- remaining activity at 0.025 µM [7]: 108%
- remaining activity at 0.025 µM [6]: 102%
- remaining activity at 0.063 µM [7]: 109%
- remaining activity at 0.125 µM [7]: 102%
- remaining activity at 0.125 µM [6]: 95.7%
- remaining activity at 0.313 µM [7]: 93%
- remaining activity at 0.625 µM [7]: 87%
- remaining activity at 1.5 µM [7]: 72.5%
